Results from US20090232731A1, “Cationic Liposomal Preparations for the Treatment of Rheumatoid Arthritis” (priority 2006, published 2009).

What was measured:
[1] = system: collagen induced arthritis; test: Collagen induced arthritis in DBA/1 mice, clinical arthritis score (EndoMTX); type: in vivo; conditions: day 34; i.v. 3 times a week from day 15, 5.0 mg/kg methotrexate where loaded
Procedure: Male DBA/1 mice with an age of ten weeks at arrival were purchased from Taconic Europe and housed in isolated cages under save environmental conditions (Five mice per cage, 22° C., 30-70% humidity and 12 h light/dark cycle) with food and water ad libitum. Experimental design was reviewed and approved by local government.
Mice were assigned to the experimental groups acclimated at least 7 days before induction of collagen induced arthritis. Animals were anesthetized intraperitoneally (i.p.) with a mixture of Xylazin and Ketamin. Each animal obtained 4 ml/kg as application volume. 0.5 ml Rompun (20 mg/ml Xylazin) and 1 ml Ketamin (100 mg/ml Ketamin) were mixed (1:2) and diluted 1:4 in 4.5 ml 0.9% NaCl. 2. For the Collagen Type II-CFA emulsions, Collagen (bovine, 4 mg/ml) was mixed 1:1 with CFA by repeated passage through a flexible tube connecting two 1-ml syringes (syringe-syringe-method). This mixture was kept on ice and will be applied within 4 hours after preparation. For the immunization 100 μl Collagen/CFA-emulsion was injected subcutaneously at the base of the tail. The injection of Collagen/CFA-emulsion was done once on day 0 and once as a booster immunization on day 21. After two weeks the animals were controlled for symptoms of collagen induced arthritis (CIA) by joint scoring three times a week. […]

[2] = system: collagen induced arthritis; test: Collagen induced arthritis in B10RIII mice, clinical arthritis score (EndoTAG-1); type: in vivo; conditions: endpoint day 11; i.v. every second day; paclitaxel 2.56 mg/kg, Enbrel 10 mg/kg

Compound	order of antiarthritic efficacy (mean clinical arthritis score) [1]	order of antiarthritic efficacy (mean clinical arthritis score) [2]
CN(Cc1cnc2nc(N)nc(N)c2n1)c1ccc(C(=O)N[C@@H](CCC(=O)O)C(=O)O)cc1 [MTX, N-[4-[[(2,4-diamino-6-pteridinyl)methyl]methylamino]benzoyl]-L-glutamic acid]	EndoMTX>EndoMTX placebo>MTX	–
Enbrel	–	Enbrel>EndoTAG-1>EndoTAG-1 placebo and Taxol®
